Results reported in BindingDB's records for doi:10.1021/jm00133a021 (1981).

Molecular target: Angiotensin-converting enzyme (ACE1)
Test: Concentration required for 50% inhibition of Angiotensin I converting enzyme

| Structure (SMILES) | IC50 |
| --- | --- |
| CCCC(C(=O)O)N1CCCC(CSC(C)=O)C1=O (configuration not stated) [2-(3-Acetylsulfanylmethyl-2-oxo-piperidin-1-yl)-pentanoic acid] | 30 µM |
| CC(=O)SCC1CCCN(C(C(=O)O)c2ccccc2)C1=O (configuration not stated) [(3-Acetylsulfanylmethyl-2-oxo-piperidin-1-yl)-phenyl-acetic acid] | 19 µM |
| CC(=O)SCC1CCCN(C(C)C(=O)O)C1=O (configuration not stated) [2-(3-Acetylsulfanylmethyl-2-oxo-piperidin-1-yl)-propionic acid] | 35 µM |

Now from value to molecule:

| IC50 | Structure (SMILES) |
| --- | --- |
| 3.7 µM | O=C(O)CN1CCC(CS)C1=O (configuration not stated) [(3-Mercaptomethyl-2-oxo-pyrrolidin-1-yl)-acetic acid] |
| 1 µM | O=C(O)CN1CCCC(CS)C1=O (configuration not stated) [(3-Mercaptomethyl-2-oxo-piperidin-1-yl)-acetic acid] |
| 100 µM | CC(=O)SCC1CCCN(CC(=O)O)C1=O (configuration not stated) [(3-Acetylsulfanylmethyl-2-oxo-piperidin-1-yl)-acetic acid] |
| 33 µM | CC(=O)SCC1CCN(CC(=O)O)C1=O (configuration not stated) [(3-Acetylsulfanylmethyl-2-oxo-pyrrolidin-1-yl)-acetic acid] |
